Read-outs that look alike come from different tables or passages of the source.
Key:
CCRF-CEM = assay: 60-cell-line screen: CCRF-CEM (Leukemia); type: cell-based
MOLT-4 = assay: 60-cell-line screen: MOLT-4 (Leukemia); type: cell-based
RPMI-8226 = assay: 60-cell-line screen: RPMI-8226 (Leukemia); type: cell-based
A549/ATCC = assay: 60-cell-line screen: A549/ATCC (Non-Small Cell Lung); type: cell-based; details: read-out: LC50 (the source's name)
Excerpt: (§1) The concentration effects of the compound for various cancer cell lines are summarized in Tables 2-10, wherein GI50 is the drug concentration required to inhibit the growth of 50% of the cells, TGI is the drug concentration required for total growth inhibition, and LC50 is the drug concentration required to kill 50% of the cells.

EKVX = assay: 60-cell-line screen: EKVX (Non-Small Cell Lung); type: cell-based; details: read-out: LC50 (the source's name)
HOP-62 = assay: 60-cell-line screen: HOP-62 (Non-Small Cell Lung); type: cell-based; details: read-out: LC50 (the source's name)
HOP-92 = assay: 60-cell-line screen: HOP-92 (Non-Small Cell Lung); type: cell-based; details: read-out: LC50 (the source's name)
NCI-H226 = assay: 60-cell-line screen: NCI-H226 (Non-Small Cell Lung); type: cell-based; details: read-out: LC50 (the source's name)
NCI-H23 = assay: 60-cell-line screen: NCI-H23 (Non-Small Cell Lung); type: cell-based
NCI-H322M = assay: 60-cell-line screen: NCI-H322M (Non-Small Cell Lung); type: cell-based; details: read-out: LC50 (the source's name)
NCI-H460 = assay: 60-cell-line screen: NCI-H460 (Non-Small Cell Lung); type: cell-based; details: read-out: LC50 (the source's name)
NCI-H522 = assay: 60-cell-line screen: NCI-H522 (Non-Small Cell Lung); type: cell-based; details: read-out: LC50 (the source's name)
COLO 205 = assay: 60-cell-line screen: COLO 205 (Colon); type: cell-based
HCT-15 = assay: 60-cell-line screen: HCT-15 (Colon); type: cell-based; details: read-out: LC50 (the source's name)
KM12 = assay: 60-cell-line screen: KM12 (Colon); type: cell-based; details: read-out: LC50 (the source's name)
Excerpt: as §1

SW-620 = assay: 60-cell-line screen: SW-620 (Colon); type: cell-based; details: read-out: LC50 (the source's name)
Excerpt: as §1

SF-268 = assay: 60-cell-line screen: SF-268 (Central Nervous System); type: cell-based; details: read-out: LC50 (the source's name)
Excerpt: as §1

SF-295 = assay: 60-cell-line screen: SF-295 (Central Nervous System); type: cell-based; details: read-out: LC50 (the source's name)
Excerpt: as §1

SF-539 = assay: 60-cell-line screen: SF-539 (Central Nervous System); type: cell-based; details: read-out: LC50 (the source's name)
Excerpt: as §1

SNB-19 = assay: 60-cell-line screen: SNB-19 (Central Nervous System); type: cell-based; details: read-out: LC50 (the source's name)
SNB-75 = assay: 60-cell-line screen: SNB-75 (Central Nervous System); type: cell-based
U251 = assay: 60-cell-line screen: U251 (Central Nervous System); type: cell-based; details: read-out: LC50 (the source's name)
MALME-3M = assay: 60-cell-line screen: MALME-3M (Melanoma); type: cell-based
M14 = assay: 60-cell-line screen: M14 (Melanoma); type: cell-based; details: read-out: LC50 (the source's name)
SK-MEL-2 = assay: 60-cell-line screen: SK-MEL-2 (Melanoma); type: cell-based
SK-MEL-28 = assay: 60-cell-line screen: SK-MEL-28 (Melanoma); type: cell-based; details: read-out: LC50 (the source's name)
UACC-257 = assay: 60-cell-line screen: UACC-257 (Melanoma); type: cell-based
UACC-62 = assay: 60-cell-line screen: UACC-62 (Melanoma); type: cell-based
IGROV1 = assay: 60-cell-line screen: IGROV1 (Ovarian); type: cell-based
OVCAR-3 = assay: 60-cell-line screen: OVCAR-3 (Ovarian); type: cell-based
Excerpt: as §1

OVCAR-4 = assay: 60-cell-line screen: OVCAR-4 (Ovarian); type: cell-based
Excerpt: as §1

OVCAR-5 = assay: 60-cell-line screen: OVCAR-5 (Ovarian); type: cell-based
Excerpt: as §1

OVCAR-8 = assay: 60-cell-line screen: OVCAR-8 (Ovarian); type: cell-based
Excerpt: as §1

SK-OV-3 = assay: 60-cell-line screen: SK-OV-3 (Ovarian); type: cell-based
Excerpt: as §1

786-0 = assay: 60-cell-line screen: 786-0 (Renal); type: cell-based
ACHN = assay: 60-cell-line screen: ACHN (Renal); type: cell-based
CAKI-1 = assay: 60-cell-line screen: CAKI-1 (Renal); type: cell-based
SN12C = assay: 60-cell-line screen: SN12C (Renal); type: cell-based
TK-10 = assay: 60-cell-line screen: TK-10 (Renal); type: cell-based
UO-31 = assay: 60-cell-line screen: UO-31 (Renal); type: cell-based
PC-3 = assay: 60-cell-line screen: PC-3 (Prostate); type: cell-based
DU-145 = assay: 60-cell-line screen: DU-145 (Prostate); type: cell-based
NCI/ADR-RES = assay: 60-cell-line screen: NCI/ADR-RES (Breast); type: cell-based
Excerpt: as §1

MDA-MB-231/ATCC = assay: 60-cell-line screen: MDA-MB-231/ATCC (Breast); type: cell-based
Excerpt: as §1

HS 578T = assay: 60-cell-line screen: HS 578T (Breast); type: cell-based; details: read-out: LC50 (the source's name)
Excerpt: as §1

MDA-MB-435 = assay: 60-cell-line screen: MDA-MB-435 (Breast); type: cell-based
MDA-N = assay: 60-cell-line screen: MDA-N (Breast); type: cell-based
BT-549 = assay: 60-cell-line screen: BT-549 (Breast); type: cell-based; details: read-out: LC50 (the source's name)
Excerpt: as §1

T-47D = assay: 60-cell-line screen: T-47D (Breast); type: cell-based; details: read-out: LC50 (the source's name)
[1] = read-out: LC50 (the source's name)

C=C1C[C@H]2C(O)Nc3cc(OCCCOc4cc5c(cc4OC)C(=O)N4CC(=C)C[C@H]4C(O)N5)c(OC)cc3C(=O)N2C1 (stereo partly shown) [Compound 16]
LC50 (CCRF-CEM): −6 Log10[C] (M)
CC50 (CCRF-CEM; [1]): 1000 nM
LC50 (MOLT-4): −7.15 Log10[C] (M)
CC50 (MOLT-4; [1]): 70.8 nM
LC50 (RPMI-8226): −7.08 Log10[C] (M)
CC50 (RPMI-8226; [1]): 83.2 nM
CC50 (A549/ATCC): 1000 nM
CC50 (EKVX): 1000 nM
CC50 (HOP-62): 1000 nM
CC50 (HOP-92): 1000 nM
CC50 (NCI-H226): 1000 nM
LC50 (NCI-H23): −7.17 Log10[C] (M)
CC50 (NCI-H23; [1]): 67.6 nM
CC50 (NCI-H322M): 1000 nM
CC50 (NCI-H460): 1000 nM
CC50 (NCI-H522): 1000 nM
LC50 (COLO 205): −6.6 Log10[C] (M)
CC50 (COLO 205; [1]): 251 nM
CC50 (HCT-15): 1000 nM
CC50 (KM12): 1000 nM
CC50 (SW-620): 1000 nM
CC50 (SF-268): 1000 nM
CC50 (SF-295): 1000 nM
CC50 (SF-539): 1000 nM
CC50 (SNB-19): 1000 nM
LC50 (SNB-75): −6.33 Log10[C] (M)
CC50 (SNB-75; [1]): 468 nM
CC50 (U251): 1000 nM
LC50 (MALME-3M): −7.15 Log10[C] (M)
CC50 (MALME-3M; [1]): 70.8 nM
CC50 (M14): 1000 nM
LC50 (SK-MEL-2): −7.14 Log10[C] (M)
CC50 (SK-MEL-2; [1]): 72.4 nM
CC50 (SK-MEL-28): 1000 nM
LC50 (UACC-257): 1000 nM
LC50 (UACC-62): −8.15 Log10[C] (M)
CC50 (UACC-62; [1]): 7.1 nM
LC50 (IGROV1): −6 Log10[C] (M)
LC50 (IGROV1; read-out: LC50): 1000 nM
LC50 (OVCAR-3): −6 Log10[C] (M)
CC50 (OVCAR-3; [1]): 1000 nM
LC50 (OVCAR-4): −6 Log10[C] (M)
CC50 (OVCAR-4; [1]): 1000 nM
LC50 (OVCAR-5): −6 Log10[C] (M)
CC50 (OVCAR-5; [1]): 1000 nM
LC50 (OVCAR-8): −6 Log10[C] (M)
CC50 (OVCAR-8; [1]): 1000 nM
LC50 (SK-OV-3): −6 Log10[C] (M)
LC50 (SK-OV-3; read-out: LC50): 1000 nM
LC50 (786-0): −6 Log10[C] (M)
CC50 (786-0; [1]): 1000 nM
LC50 (ACHN): −6 Log10[C] (M)
CC50 (ACHN; [1]): 1000 nM
LC50 (CAKI-1): −6 Log10[C] (M)
CC50 (CAKI-1; [1]): 1000 nM
LC50 (SN12C): −6 Log10[C] (M)
CC50 (SN12C; [1]): 1000 nM
LC50 (TK-10): −6 Log10[C] (M)
LC50 (TK-10; read-out: LC50): 1000 nM
LC50 (UO-31): −6 Log10[C] (M)
CC50 (UO-31; [1]): 1000 nM
LC50 (PC-3): −6 Log10[C] (M)
CC50 (PC-3; [1]): 1000 nM
LC50 (DU-145): −6 Log10[C] (M)
CC50 (DU-145; [1]): 1000 nM
LC50 (NCI/ADR-RES): 1000 nM
LC50 (MDA-MB-231/ATCC): 1000 nM
CC50 (HS 578T): 1000 nM
LC50 (MDA-MB-435): −7.07 Log10[C] (M)
CC50 (MDA-MB-435; [1]): 85.1 nM
LC50 (MDA-N): −7.24 Log10[C] (M)
CC50 (MDA-N; [1]): 57.5 nM
CC50 (BT-549): 1000 nM
CC50 (T-47D): 1000 nM
LC50 (HL-60(TB); Leukemia): −7.55 Log10[C] (M)
CC50 (HL-60(TB); read-out: LC50, Leukemia): 28.2 nM
